Measured values taken from patent publication US10662407B2, “Method for controlling differentiation of embryonic stem cells into adipocytes or kidney precursor cells by regulating SIRT1 expression” (INDUSTRIAL COOPERATION FOUNDATION CHONBUK NATIONAL …, priority 2015, dated 2020).

Assays:
[1] = test system: PPARγ mRNA expression; assay: PCR of PPARγ mRNA during adipocyte differentiation of embryonic stem cells; assay type: cell-based, mouse; conditions: SIRT1+/+ cells treated with EX527 10 μM, harvested 7 and 10 days after induction, FIG. 3
Description: (§1) In the present disclosure, in order to confirm the mechanism of regulating the differentiation of embryonic stem cells into adipocytes by SIRT1, in the step of differentiating into adipocytes, mRNA expression levels of peroxisome proliferator-activated receptors-γ (PPARγ), CCAAT/enhancer-binding protein-α (C/EBP α) and fatty acid binding protein 4 (FABP4) in adipocytes were measured by a PCR method. Each primer used in the PCR method was as represented in Table 1 and was manufactured by Bioneer (Korea). GAPDH was used as a control group for the reliability of the PCR method.
(§2) In the same manner as in Example 2, differentiation of embryonic stem cells into adipocytes was induced, each cell was harvested on 7 and 10 days after induction of lipid differentiation, and total RNAs were extracted using TRIzol reagent (Life Technology, USA). The extracted RNAs were synthesized into cDNAs using a cDNA synthesis kit (Roche, Germany) and a PCR method was carried out using the primers represented in Table 1.

[2] = test system: FABP4 mRNA expression; assay: PCR of FABP4 mRNA during adipocyte differentiation of embryonic stem cells; assay type: cell-based, mouse; conditions: SIRT1+/+ cells treated with EX527 10 μM, harvested 7 and 10 days after induction, FIG. 3
Description: as §1, §2

[3] = test system: C/EBP α mRNA expression; assay: PCR of C/EBP α mRNA during adipocyte differentiation of embryonic stem cells; assay type: cell-based, mouse; conditions: SIRT1+/+ cells treated with EX527 10 μM, harvested 7 and 10 days after induction, FIG. 3
Description: as §1, §2

[4] = test system: mouse embryonic stem cells (SIRT1+/+; WT), differentiation into adipocytes; assay: Oil Red O staining of embryonic stem cells differentiated into adipocytes; assay type: cell-based; conditions: for differentiation into adipocytes versus group without inhibitor (Oil Red O): EX527 10 μM, FIG. 4
Description: In the present disclosure, in order to determine whether differentiation of embryonic stem cells into adipocytes was affected by the presence or absence of SIRT1 protein expression, degrees of differentiation of the embryonic stem cells (SIRT1+/+; WT) expressing the SIRT1 genes and the mouse embryonic stem cells lacking SIRT1 genes (SIRT1−/−; KO), prepared in Example 1, were determined, and when EX527 (10 μM, Tocris, UK), SIRT1 inhibitor, was treated with SIRT1+/+ embryonic stem cells, the degree of lipid differentiation according to SITRT1 inhibition was determined.
In the hanging-drop culture, 1000 embryonic stem cells were added into 20 μl to prepare a single embryoid body, the process of induction into adipocytes was cultured by inoculating 15 cultures into each well using a 6-well plate.
The medium for differentiation into adipocyte was prepared by adding 85 nM insulin (Sigma, USA), 2 nM triiodothyronine (Sigma, USA) and 2 μM rosiglitazone (Sigma, USA) to DMEM and embryoid bodies were cultured, the medium exchange was performed daily.
In addition, SIRT1 inhibitor EX527 was added to SIRT1+/+ embryonic stem cells until the early 5th day of differentiation into adipocytes.
Oil Red O staining was performed to determine whether the differentiation into adipocytes was successfully performed in mouse embryonic stem cells differentiated for 21 days in Example 2.
First, SIRT1+/+ cells, SIRT1−/− cells, and SIRT1+/+ cells differentiated by treatment with SIRT1 inhibitor were treated with 10% formaldehyde to fix the cells, the formaldehyde was washed with phosphate buffered saline three times and then was treated with 60% isopropanol. Then, 2 ml Oil Red O staining solution was added and the mixture was stained at room temperature for 30 minutes in the dark, and then was washed with phosphate buffered saline three times.
Oil Red O staining was performed on the lipid droplets in the differentiated adipocytes. After staining, the cells were observed using a microscope to identify red-stained fat adipocytes.
When the observation was completed, stained dye in adipocyte was extracted using 1 ml isopropanol per well and optical density (OD) was measured at 500 nm with an ELISA reader. The Oil Red O staining solution is a solution of 500 mg of Oil Red O dye (Sigma, USA) in 100 ml isopropanol, mixed with distilled water at a ratio of 6:4 and filtered using a 0.45 μm filter.
In the same manner as in Example 2, differentiation of embryonic stem cells into adipocytes was induced. The samples were divided into various groups: a group treated for 0 to 5 days at the early stage of differentiation, a group treated for 7 to 21 days at the latter stage of differentiation, and a group treated for 0 to 21 days during the entire differentiation period, which were treated with the SIRT1 inhibitor.

[5] = test system: WT1 mRNA expression; assay: Quantitative PCR of WT1 mRNA during differentiation of embryonic stem cells into kidney precursor cells; assay type: cell-based, mouse; conditions: for mRNA expression level of WT1: embryonic stem cells, EX527 5-10 uM, resveratrol 10-20 uM, FIG. 7A
Description: (§3) The cell culture media, from which Leukemia Inhibitory Factor (LIF; Milipore, USA) was removed, were treated with 100 nmol/L Retinoic acid and 10 ng/mL Activin A, and then mRNA expression levels of Six2 and WT1, kidney precursor cells, were measured. In the process of induction into kidney precursor cells, embryonic stem cells were inoculated into wells of a 6-well plate to be cultured therein.
(§4) The media for differentiation into kidney precursor cells were cultured by adding 2 mM Gluta MAX™ (Gibco, USA), 1× Non-essential aminoacid, (1×NEAA; Gibco, USA), 0.1 mM beta-mercaptoethanol (Invitrogen, USA) and […] to DMEM.
(§5) In the step for differentiation of embryonic stem cells into kidney precursor cells, mRNA expression levels of Six2 and WT1, indicators of kidney precursor cells, were measured by a PCR method. Each primer used in the PCR method was as represented in Table 2 and was manufactured by Bioneer (Korea). GAPDH was used as a control group for the reliability of the PCR method.
as §2, with “6,” for “2,”, “kidney precursor cells” for “adipocytes”, “day 11 of differentiation induction” for “7”, “then” for “10 days after induction of lipid differentiation, and”, “2.” for “1.”
(§6) In order to confirm the differentiation of embryonic stem cells into kidney precursor cells according to the inhibition or promotion of SIRT1 protein expression, the differentiation of the embryonic stem cells (SIRT1+/+; WT) expressing the SIRT1 genes, which were prepared in Example 1, into kidney precursor cells was confirmed. The differentiation was confirmed by protein expression levels of Six2 and WT1, indicators of kidney precursor cells.
(§7) In the step for differentiation of embryonic stem cells into kidney precursor cells, mRNA expression levels of Six2 and WT1, indicators of kidney precursor cells, were measured by a quantitative PCR method.

[6] = test system: Six2 mRNA expression; assay: Quantitative PCR of Six2 mRNA during differentiation of embryonic stem cells into kidney precursor cells; assay type: cell-based, mouse; conditions: for mRNA expression level of Six2: embryonic stem cells, EX527 5-10 uM, resveratrol 10-20 uM, FIG. 7B
Description: as §3, §4, §5
as §2, with “6,” for “2,”, “kidney precursor cells” for “adipocytes”, “day 11 of differentiation induction” for “7”, “then” for “10 days after induction of lipid differentiation, and”, “2.” for “1.”
as §6, §7

With `NC(=O)C1CCCc2c1[nH]c1ccc(Cl)cc21` (stereo not shown) [EX527, 6-Chloro-2,3,4,9-tetrahydro-1H-Carbazole-1-carboxamide] the “mRNA expression of PPARγ” value [1] was “significantly decreased”, the “mRNA expression of FABP4” value [2] was “significantly decreased” and the “mRNA expression of C/EBP α” value [3] was “significantly decreased”. The “differentiation into adipocytes versus group without inhibitor (Oil Red O)” value ([4]; treated 0 to 5 days, early stage of differentiation) was “decrease in differentiation into adipocytes”, the “differentiation into adipocytes versus group without inhibitor (Oil Red O)” value ([4]; treated 0 to 21 days, entire differentiation period) was “not significantly different” and the “differentiation into adipocytes versus group without inhibitor (Oil Red O)” value ([4]; treated 7 to 21 days, latter stage of differentiation) was “more differentiated into adipocytes”. The “adipocyte differentiation (lipid droplets, Oil Red O staining, microscope) versus SIRT1+/+ cells” value ([4]; SIRT1+/+ cells, EX527 10 μM until early 5th day of differentiation, 21 days differentiation, FIG. 2A) was “remarkably lower”, the “reduction of adipocyte differentiation (absorbance at 500 nm of extracted Oil Red O)” value ([4]; SIRT1+/+ cells, EX527 10 μM until early 5th day, compared to SIRT1+/+ cells, FIG. 2B) was “about 38%” and the “mRNA expression level of WT1” value [5] was “significantly decreased”. For the same compound, the “mRNA expression level of WT1” value ([5]; listed as SIRT1 inhibitor) was “decreased”, the “mRNA expression level of Six2” value [6] was “significantly decreased” and the “mRNA expression level of Six2” value ([6]; listed as SIRT1 inhibitor) was “decreased”.

For `Oc1ccc(C=Cc2cc(O)cc(O)c2)cc1` [resveratrol], the “mRNA expression level of WT1” value [5] was “significantly increased”, the “expression of WT1 compared with control” value ([5]; resveratrol 20 μM) was “significantly promoted” and the “mRNA expression level of Six2” value [6] was “significantly increased”. The “expression of Six2 compared with control” value ([6]; resveratrol 20 μM) was “significantly promoted”.
